Experiment: Parallel Artificial Membrane Permeability Assay (PAMPA)
Assay type: in vitro ADME
Details: for Membrane Retention / Papp at 4 h: PAMPA; for Membrane Retention: pH 7.40, 4 hours; for Papp at 4 h: pH 7.4, pH 7.40, room temperature, read-out: PAMPA Pe; for PAMPA category: class from Pe and membrane retention
Description: PAMPA (Parallel Artificial Membrane Permeability Assay) is a first-line permeability screen for drug candidates. This assay mimics the transcellular absorption conditions using an artificial phospholipid membrane and generates a permeability value that can be used for compound ranking and optimization as well as input parameters for in silico models to predict intestinal absorption.
Permeation experiments are carried out in hydrophobic PVDF 96-well microtiter filter plates (MultiScreen Filter Plate, Millipore, #MAIPN4550). Each well is coated with PVDF membrane, which is prepared with 5 µL Dodecane (Sigma, D221104) that contains 1% lecithin (Sigma, P3556-1G).
The typical PAMPA experimental protocol is as follows: The donor plate is placed on a Teflon acceptor plate that has been pre-filled with 150 µL of 100 mM PBS buffer (2.6 g KH2PO4 and 18.5 g K2HPO4.3H2O are dissolved in about 1000 mL of ultra-pure water and mixed thoroughly. The pH is adjusted to 7.40 ± 0.05, using either 1 M sodium hydroxide or 1 M hydrochloric acid.) containing 5% DMSO. The filter on the bottom of each acceptor well is filled with 300 µL of 100 mM PBS buffer (2.6 g KH2PO4 and 18.5 g K2HPO4.3H2O are dissolved in about 1000 mL of ultra-pure water, mixed thoroughly. The pH was adjusted to 7.40 ± 0.05, using either 1 M sodium hydroxide or 1 M hydrochloric acid.). The resulting sandwich is incubated at room temperature under constant shaking (300 rpm) for 4 hours. The sandwich is then disassembled. Before incubation, spike 20 µL dosing solution and mix with 250 µL PBS and 130 µL quench solution (acetonitrile) as T0 sample. After incubation, collect 270 µL solutions from acceptor chamber, followed by the addition of 130 µL acetonitrile. Collect 20 µL solution from donor chamber and add 250 µL PBS and 130 µL acetonitrile. The concentration of compound in all samples are determined by LC-MS/MS and the equations for determining the permeability (Pe, 10^-6 cm/s ) are as follows.
VD is the volume of the donor well; VR is the volume of the acceptor well; Area is the active surface area of membrane; Time is the incubation time (14,400 s in this assay); CR and CD are the concentrations of compound in acceptor and donor solutions, respectively, at the completion of the assay; C0 is the concentration of compound in donor solution before incubation.
The main readout of the PAMPA assay is the permeability value Pe expressed in 10^-6 cm/s. Secondary readouts determined are the amounts of compound in the donor and acceptor compartments as well as compound retention in the membrane. Depending on the permeation rate and the membrane retention, compounds are classified as “low” (Pe < 0.2 and membrane retention <20%) or “medium & high” (Pe >= 0.2; or Pe < 0.2 and membrane retention >= 20%). Each sample is measured in triplicate; the standard deviation is determined for the permeation constant Pe.

| SMILES | Membrane Retention [%] | Papp at 4 h [×10⁻⁶ cm/s] | PAMPA category |
| --- | --- | --- | --- |
| CCc1nc(N2CCN(Cc3cnc(N4CC5(CNCCO5)C4)nc3)CC2)ccc1-c1cc(C)c(=O)n(C)c1 [Example 1, 5-[2-ethyl-6-[4-[[2-(5-oxa-2,8-diazaspiro[3.5]nonan-2-yl)pyrimidin-5-yl]methyl]piperazin-1-yl]-3-pyridyl]-1,3-dimethyl-pyridin-2-one] | -11.520 | 0.57 | medium & high (“medium & high” (Pe >= 0.2; or Pe < 0.2 and membrane retention >= 20%)) |
| CCc1nc(N2CCN(Cc3ccc(N4CC5(CNCCO5)C4)nc3)CC2)ccc1-c1cc(C)c(=O)n(C)c1 [Example 2, 5-[2-ethyl-6-[4-[[6-(5-oxa-2,8-diazaspiro[3.5]nonan-2-yl)-3 pyridyl]methyl]piperazin-1-yl]-3-pyridyl]-1,3-dimethyl-pyridin-2-one] | 10.600 | 0.49 | medium & high (“medium & high” (Pe >= 0.2; or Pe < 0.2 and membrane retention >= 20%)) |
| CCc1nc(N2CCN(Cc3cnc(N4CC(C)(N)C4)nc3)CC2)ccc1-c1cc(C)c(=O)n(C)c1 [Example 3, 5-[6-[4-[[2-(3-amino-3-methyl-azetidin-1-yl)pyrimidin-5-yl]methyl]piperazin-1-yl]-2-ethyl-3-pyridyl]-1,3-dimethyl-pyridin-2-one] | -1.260 | 0.53 | medium & high (“medium & high” (Pe >= 0.2; or Pe < 0.2 and membrane retention >= 20%)) |
| CCc1nc(N2CCN(Cc3cnc(N4CCOC[C@@H](N)C4)nc3)CC2)ccc1-c1cc(C)c(=O)n(C)c1 [Example 4, 5-[6-[4-[[2-[(6S)-6-amino-1,4-oxazepan-4-yl]pyrimidin-5-yl]methyl]piperazin-1-yl]-2-ethyl-3-pyridyl]-1,3-dimethyl-pyridin-2-one] | 15.690 | 0.75 | medium & high (“medium & high” (Pe >= 0.2; or Pe < 0.2 and membrane retention >= 20%)) |
| CCc1nc(N2CCN(Cc3ccc(N4CCNCC4)cc3)CC2)ccc1-c1cc(C)c(=O)n(C)c1 [Example 5, 5-[2-ethyl-6-[4-[(4-piperazin-1-ylphenyl)methyl]piperazin-1-yl]-3-pyridyl]-1,3-dimethyl-pyridin-2-one] | 18.250 | 1.5 | medium & high (“medium & high” (Pe >= 0.2; or Pe < 0.2 and membrane retention >= 20%)) |
| Cc1cc(-c2ccc(N3CCN(Cc4cnc(N5CC6(CNCCO6)C5)nc4)CC3)nc2C(C)C)cn(C)c1=O [Example 6, 5-[2-isopropyl-6-[4-[[2-(5-oxa-2,8-diazaspiro[3.5]nonan-2-yl)pyrimidin-5-yl]methyl]piperazin-1-yl]-3-pyridyl]-1,3-dimethyl-pyridin-2-one] | 19.190 | 0.65 | medium & high (“medium & high” (Pe >= 0.2; or Pe < 0.2 and membrane retention >= 20%)) |
| Cc1cc(-c2ccc(N3CCN(Cc4cnc(N5CC(C)(N)C5)nc4)CC3)nc2C(C)C)cn(C)c1=O [Example 10, 5-[6-[4-[[2-(3-amino-3-methyl-azetidin-1-yl)pyrimidin-5-yl]methyl]piperazin-1-yl]-2-isopropyl-3-pyridyl]-1,3-dimethyl-pyridin-2-one] | 7.250 | 0.6 | medium & high (“medium & high” (Pe >= 0.2; or Pe < 0.2 and membrane retention >= 20%)) |
| Cc1cc(-c2ccc(N3CCN(Cc4ccc(N5CCNCC5)cc4)CC3)nc2C(F)F)cn(C)c1=O [Example 17, 5-[2-(difluoromethyl)-6-[4-[(4-piperazin-1-ylphenyl)methyl]piperazin-1-yl]-3-pyridyl]-1,3-dimethyl-pyridin-2-one] | 50.950 | 1.5 | medium & high (“medium & high” (Pe >= 0.2; or Pe < 0.2 and membrane retention >= 20%)) |

Now from value to molecule, other results behind:

| Membrane Retention [%] | Papp at 4 h [×10⁻⁶ cm/s] | SMILES | PAMPA category |
| --- | --- | --- | --- |
| 2.530 | 0.74 | Cc1cc(-c2ccc(N3CCN(Cc4ccc(N5CCNCC5)cn4)CC3)nc2C(C)C)cn(C)c1=O [Example 7, 5-[2-isopropyl-6-[4-[(5-piperazin-1-yl-2-pyridyl)methyl]piperazin-1-yl]-3-pyridyl]-1,3-dimethyl-pyridin-2-one] | medium & high (“medium & high” (Pe >= 0.2; or Pe < 0.2 and membrane retention >= 20%)) |
| 21.370 | 0.95 | Cc1cc(-c2ccc(N3CCN(Cc4cnc(N5CCNCC5)cn4)CC3)nc2C(C)C)cn(C)c1=O [Example 8, 5-[2-isopropyl-6-[4-[(5-piperazin-1-ylpyrazin-2-yl)methyl]piperazin-1-yl]-3-pyridyl]-1,3-dimethyl-pyridin-2-one] | medium & high (“medium & high” (Pe >= 0.2; or Pe < 0.2 and membrane retention >= 20%)) |
| 27.230 | 0.78 | Cc1cc(-c2ccc(N3CCN(Cc4cnc(N5CCNCC5)nc4)CC3)nc2C(C)C)cn(C)c1=O [Example 9, 5-[2-isopropyl-6-[4-[(2-piperazin-1-ylpyrimidin-5-yl)methyl]piperazin-1-yl]-3-pyridyl]-1,3-dimethyl-pyridin-2-one] | medium & high (“medium & high” (Pe >= 0.2; or Pe < 0.2 and membrane retention >= 20%)) |
| 24.900 | 0.6 | Cc1cc(-c2ccc(N3CCN(Cc4ccc(N5CCNCC5)nc4)CC3)nc2C(C)C)cn(C)c1=O [Example 11, 5-[2-isopropyl-6-[4-[(6-piperazin-1-yl-3-pyridyl)methyl]piperazin-1-yl]-3-pyridyl]-1,3-dimethyl-pyridin-2-one] | medium & high (“medium & high” (Pe >= 0.2; or Pe < 0.2 and membrane retention >= 20%)) |
| 15.270 | 0.46 | Cc1cc(-c2ccc(N3CCN(Cc4ncc(N5CCNCC5)cn4)CC3)nc2C(C)C)cn(C)c1=O [Example 12, 5-[2-isopropyl-6-[4-[(5-piperazin-1-ylpyrimidin-2-yl)methyl]piperazin-1-yl]-3-pyridyl]-1,3-dimethyl-pyridin-2-one] | medium & high (“medium & high” (Pe >= 0.2; or Pe < 0.2 and membrane retention >= 20%)) |
| 56.550 | 0.46 | Cc1cc(-c2ccc(N3CCN(Cc4ccc(N5CCNCC5)cc4)CC3)nc2C(C)C)cn(C)c1=O [Example 13, 5-[2-isopropyl-6-[4-[(4-piperazin-1-ylphenyl)methyl]piperazin-1-yl]-3-pyridyl]-1,3-dimethyl-pyridin-2-one] | medium & high (“medium & high” (Pe >= 0.2; or Pe < 0.2 and membrane retention >= 20%)) |
| 38.020 | 0.54 | Cc1cc(-c2ccc(N3CCN(Cc4cccc(N5CCNCC5)c4)CC3)nc2C(C)C)cn(C)c1=O [Example 14, 5-[2-isopropyl-6-[4-[(3-piperazin-1-ylphenyl)methyl]piperazin-1-yl]-3-pyridyl]-1,3-dimethyl-pyridin-2-one] | medium & high (“medium & high” (Pe >= 0.2; or Pe < 0.2 and membrane retention >= 20%)) |
| 27.680 | 0.23 | Cc1cc(-c2ccc(N3CCN(c4ccc5c(n4)CCNC5)CC3)nc2C(C)C)cn(C)c1=O [Example 15, 5-[2-isopropyl-6-[4-(5,6,7,8-tetrahydro-1,6-naphthyridin-2-yl)piperazin-1-yl]-3-pyridyl]-1,3-dimethyl-pyridin-2-one] | medium & high (“medium & high” (Pe >= 0.2; or Pe < 0.2 and membrane retention >= 20%)) |
| 30.770 | 0.24 | Cc1cc(-c2ccc(N3CCN4CCN(c5ccc(N6CCNCC6)nc5)CC4C3)nc2C(C)C)cn(C)c1=O (stereo not drawn) [Example 16, 5-[2-isopropyl-6-[8-(6-piperazin-1-yl-3-pyridyl)-3,4,6,7,9,9a-hexahydro-1H-pyrazino[1,2-a]pyrazin-2-yl]-3-pyridyl]-1,3-dimethyl-pyridin-2-one] | medium & high (“medium & high” (Pe >= 0.2; or Pe < 0.2 and membrane retention >= 20%)) |
| 8.650 | 0.74 | Cc1cc(-c2ccc(N3CCC(N4CCNCC4)CC3)nc2C(C)C)cn(C)c1=O [Example 18, 5-[2-isopropyl-6-(4-piperazin-1-yl-1-piperidyl)-3-pyridyl]-1,3-dimethyl-pyridin-2-one] | medium & high (“medium & high” (Pe >= 0.2; or Pe < 0.2 and membrane retention >= 20%)) |
